This note sets out measurements from patent US20210008028A1, “COMPOSITIONS AND METHODS FOR TREATING DIARRHEAL DISEASES” (VANESSA RESEARCH, INC., priority 2018, published 2021).

In this test the test system is CTx-induced fluid secretion in the mouse intestine. The test can be described thus: Cholera-toxin induced closed-loop mouse diarrheal model, individual polyphenols and their combination. In kind it is in vivo. As to conditions: for Concentration that did not have any effect on the CTx-induced fluid secretion: individual compound, CTx 1 μg per loop; for Effect on fluid accumulation elicited by CTx: individual polyphenols, dose-dependent. As for the experimental part: Following identification, individual reagents of cyanidin, delphinidin, epicatechin gallate and epigallocatechin gallate were acquired from ChromaDex (Chromadex, Irvine, Calif., USA) and tested in the same cholera-toxin induced closed-loop mouse diarrheal model described above. We sought and resolved the IC^50 concentration of each individual component as relevant for the treatment of cholera-toxin induced intestinal secretion.
Mice (19-35 g) were fasted for 24-48 h, weighed and anesthetized with Avertin Sigma-Aldrich, St. Louise, Mo., USA) (250 mg/kg IP induction dose f.b. 2.6 mg IP every 30-45 minutes as needed for maintenance of anesthesia). Body temperature was maintained at 37-38° C. using a heating pad.
Abdomen was opened. Small, and part of the large intestine were identified. 2-4 cm loops were ligated in the proximal jejunum beginning immediately downstream of Treitz ligament. Loops were separated by 1-2 cm of intervening small intestine. After ligation, one loop was injected with 100 μl of PBS, second loop was injected with CTx solution (Cayman chemicals, 1 μg in 100 μl PBS and third loop was injected with CTx and polyphenol solution (Chromadex, Irvine, Calif., USA) in 100 μl of PBS. Injected loops were photographed and carefully placed back into the abdominal cavity and then abdomen was closed with two sutures. After 4 to 6-hour incubation, animal was euthanized and entire length of small intestine, cecum and ascending transverse colon were removed as a single prep. Loops were excised, trimmed of fat, measured and weighted. Mice were euthanized by cervical dislocation or an overdose injection of Avertin. All animal protocols were approved by the Laboratory Animal Ethical Committee of Vanessa Research Inc. The loop weight/length ratio was calculated.
Flavan-3-ols and gallotannins stock solutions (stock dilutions (stored at −20 C)) and working dilutions (PBS) were designated and prepared as follows:
F1A—Cyanidin chloride (Chromadex, ASB-00003955-005 Lot #00003955-041) 5 mg dissolved in 1 ml methanol (Sigma-Aldrich, Saint Louise, Mo., USA) to 5 mg/ml stock. Original concentration used in experiments 0.05 mg/ml. Serial dilutions from 1:10 to 1:100,000 with increments of 1:10 were prepared for experiments.
F1B—Delphinidin chloride (Chromadex, ASB-00004125-001 Lot #00004125-504) 1 mg dissolved in 143 ul methanol to 7 mg/ml stock. Original concentration used in experiments 0.07 mg/ml. Serial dilutions from 1:10 to 1:100,000 with increments of 1:10 were prepared for experiments.
F1C—Epicatechin gallate (Chromadex, ASB-00005135-005 Lot #00005135-523) 5 mg dissolved in 1 ml methanol to 5 mg/ml stock. Original concentration used in experiments […] (1:50 dilution of 5 mg/ml stock). Serial dilutions from 1:10 to 1:100,000 with increments of 1:10 were prepared for experiments.
F1D—Epigallocatechin gallate (Chromadex, ASB-00005150-005 Lot #00005150-008) 5 mg dissolved in 1 ml methanol to 5 mg/ml stock. Original concentration used in experiments […] (1:33.4 of 5 mg/ml stock). Serial dilutions from 1:10 to 1:100,000 with increments of 1:10 were prepared for experiments.
However, in order to confirm or exclude the idea of synergism between multiple polyphenols in exertion of the anti-secretory effect following induction of fluid secretion with CTx, we attempted a treatment with a combination of all 4 polyphenols in the concentrations as indicated in Table 1. The ratio of concentrations (mg/ml) of individual members (cyaniding:delphinidin:epicatechin gallate:epigallocatechin gallate) in the combination was derived from Table 1 as 500:70:1:150 (weight ratio) accordingly.
Data analysis was done as follows: The formula was used as adapted from Yamamoto K., 1979:
Mass accumulation=Tm−(Cm/CL)×TL
After determining fluid accumulation in treated and untreated samples, a percent reduction in mass was performed using the mass obtained from the previous formula
5. The certain variables were removed based on the Exclusion Criteria for Data: […]

For `Oc1cc(O)c2cc(O)c(-c3ccc(O)c(O)c3)[o+]c2c1.[Cl-]` [F1A, Cyanidin chloride], the “Concentration that did not have any effect on the CTx-induced fluid secretion” value came to 5e-06 mg/mL and the “Effect on fluid accumulation elicited by CTx” value (“Effect … by CTx” below) was “significantly reduced fluid accumulation”.
`Oc1cc(O)c2cc(O)c(-c3cc(O)c(O)c(O)c3)[o+]c2c1` [F1B, Delphinidin chloride]: the “Concentration that did not have any effect on the CTx-induced fluid secretion” value was 7e-08 mg/mL and the “Effect … by CTx” value is reported as “significantly reduced fluid accumulation”.
With `O=C(O[C@@H]1Cc2c(O)cc(O)cc2O[C@@H]1c1ccc(O)c(O)c1)c1cc(O)c(O)c(O)c1` [F1C, Epicatechin gallate], the “Concentration that did not have any effect on the CTx-induced fluid secretion” value is 1e-08 mg/mL and the “Effect … by CTx” value is recorded as “significantly reduced fluid accumulation”.
For `O=C(O[C@@H]1Cc2c(O)cc(O)cc2O[C@@H]1c1cc(O)c(O)c(O)c1)c1cc(O)c(O)c(O)c1` [F1D, Epigallocatechin gallate] the same measures were 1e-06 mg/mL and “significantly reduced fluid accumulation”.
